Test results from patent publication US20100120747A1, “COMBINATION OF A CHOL[…] AND A COMPOUND WITH 5-HT6 RECEPTOR AFFINITY” (priority 2006, published 2010).
Counter-ions that a name gives are not always drawn.

System: adult male Lister hooded rats
Experiment: Novel object discrimination (NOD) test, 4 h inter-trial interval
Type: in vivo, rat
Conditions: FIG. 1; for effect in the NOD test: 4 h ITI, each amount given by itself or both amounts combined
Description: II) Behavioural Assessment of Cognitive Effects of Compounds with 5-HT6 Receptor Affinity: Novel Object Discrimination (NOD)
Two separate groups of 12 adult male Lister hooded rats are tested in the NOD paradigm using 4 h inter-trial interval (ITI) delay between the familiarisation and choice trials which should ensure impaired discrimination and permit the pro-cognitive effects of the compounds to be evaluated.
In two separate groups of animals compound [1140] (6-chloro-N-(3-(2-(dimethylamino)ethyl)-1H-indol-5-yl)imidazo[2,1-b]thiazole-5-sulfonamide) and donepezil HCl (or vehicle) were administered on four separate occasions, at seven day intervals. The semi-randomised design for drug administration ensures that for each group, each animal receives one of the four treatment combinations once during the study: compound [1140] and donepezil HCl, compound [1140] and vehicle, donepezil HCl and vehicle, vehicle and vehicle. […] Drug pre-treatment occurred 20 min prior to the first NOD trial to ensure optimal drug plasma levels during acquisition and consolidation phases.
To maximise the opportunity to see a synergistic effect, the animals received one dose of donepezil HCl i.p. (0.05 mg/kg for group 1 and 0.1 mg/kg for group 2) in combination with the selected dose of compound [1140] (1 mg/kg) or the vehicle (saline containing 0.5 methylcellulose, 2 ml/kg).
The exact experimental protocol is outlined in detail in:
M. V. King et al, 5-HT6 receptor antagonist reverse delay-dependent deficits in novel object discrimination by enhancing consolidation—an effect sensitive to NMDA receptor antagonism, Neuropharmacology 2004, 47, 195-204 and Woolley et al. Reversal of cholinergic-induced deficit in a rodent model of recognition memory by the selective 5-HT6 receptor antagonist, Ro 04-6790; Psychopharmacology 2003, 170, 358-367.
The behavioural assessment of cognitive effects of compounds with 5-HT6 receptor affinity with the novel object discrimination (NOD) test was carried out as described above.
The results are depicted in FIG. 1. […]

SMILES	effect in the NOD test	potentiation of the action of compound [1140] in the NOD test (donepezil given with compound [1140])
CN(C)CCc1c[nH]c2ccc(NS(=O)(=O)c3c(Cl)nc4sccn34)cc12 [compound [1140], 6-chloro-N-(3-(2-(dimethylamino)ethyl)-1H-indol-5-yl)imidazo[2,1-b]thiazole-5-sulfonamide]	does not have any effect	–
COc1cc2c(cc1OC)C(=O)C(CC1CCN(Cc3ccccc3)CC1)C2 (stereo not drawn) [donepezil hydrochloride]	does not have any effect	potentiates the action
